The subject of assay [1] is tRNA^phe (yeast) (RNA, tRNA) GCGGAUUUAGCUCAGUUGGGAGAGCGCCAGACUGAAGAUCUGGAGGUCCUGUGUUCGAUCCACAGAAUUCGCACCA
In words: ITC. The conditions noted are these: 10 mM Na+; citrate-phosphate, pH 7.0, 20 °C; only background heats, binding negligible.

The test system is the same in assay [2]. Description: UV melting, 260 nm. The conditions noted are these: 10 mM Na+; citrate-phosphate, pH 7.0; 50 µM tRNA nucleotides; saturating alkaloid; average Tm 50 °C alone; per base.
The test system is the same in assay [3]. In words: absorbance titration, Benesi-Hildebrand. The note with it: 10 mM Na+; citrate-phosphate, pH 7.1, 20 °C; apparent; tRNA in nucleotide phosphates; per base.
The test system is the same in assay [4]. In words: fluorescence titration, Benesi-Hildebrand. The note with it: 10 mM Na+; citrate-phosphate, pH 7.1, 20 °C; apparent; tRNA in nucleotide phosphates; per base.
Assay [5] shares this test system. Description: ITC, single-site fit. The conditions noted are these: 10 mM Na+; citrate-phosphate, pH 7.0, 20 °C; tRNA concentration in nucleotide phosphates; per base. (Isothermal titration calorimetry measures the heat released or taken up as one component is titrated into another.)
Assay [6] shares this test system. Description: absorbance titration, Scatchard, McGhee-von Hippel cooperative fit. The note with it: 10 mM Na+; citrate-phosphate, pH 7.1, 20 °C; overall cooperative constant; tRNA in nucleotide phosphates; per base.
The test system is the same in assay [7]. Description: fluorescence titration, Scatchard, McGhee-von Hippel cooperative fit. The note with it: 10 mM Na+; citrate-phosphate, pH 7.1, 20 °C; overall cooperative constant; tRNA in nucleotide phosphates; per base.

What is called ΔTm is the change in melting temperature against a reference sample. For the compound `COc1ccc2cc3[n+](cc2c1O)CCc1cc2c(cc1-3)OCO2`, the binding result in assay [1] is “weak”. Moreover, the ΔTm in assay [2] was 2.0 °C. Besides, the KBH in assay [3] came to 4300 M⁻¹; in assay [4] it was 4200 M⁻¹.

As to `COc1ccc2cc3[n+](cc2c1OC)CCc1cc2c(cc1-3)OCO2`, in assay [2], the shift in melting temperature (ΔTm) is 4.5 °C. Moreover, in assay [5], the Ka is reported as 0.86 ± 0.01 × 10^5 M^-1. The KBH in assay [3] was 114000 M⁻¹; in assay [4] it was 122000 M⁻¹. Also, the results for the Kiω in assay [6] and in assay [7] were 169000 M⁻¹ and 177000 M⁻¹, respectively.

As to `COc1ccc2cc3[n+](cc2c1OCC(=O)NCCc1ccccc1)CCc1cc2c(cc1-3)OCO2`, the ΔTm in assay [2] is 8.0 °C. Moreover, the Ka in assay [5] is listed as 8.20 ± 0.04 × 10^5 M^-1. Moreover, the KBH was 874000 M⁻¹ in assay [3] and 889000 M⁻¹ in assay [4]. For the same compound, the Kiω in assay [6] was found to be 922000 M⁻¹; in assay [7], 941000 M⁻¹.

Take `COc1ccc2cc3[n+](cc2c1OCC(=O)NCc1ccccc1)CCc1cc2c(cc1-3)OCO2`: in assay [2], the ΔTm is 7.0 °C. In addition, the Ka in assay [5] is 7.17 ± 0.03 × 10^5 M^-1. Moreover, the KBH in assay [3] was 613000 M⁻¹; in assay [4], 644000 M⁻¹. Further, the Kiω in assay [6] came out at 640000 M⁻¹; in assay [7], 658000 M⁻¹.

For the compound `COc1ccc2cc3[n+](cc2c1OCC(=O)Nc1ccccc1)CCc1cc2c(cc1-3)OCO2`, the ΔTm in assay [2] stood at 6.5 °C. Further, the Ka in assay [5] is recorded as 4.67 ± 0.03 × 10^5 M^-1. Moreover, the KBH in assay [3] worked out at 425000 M⁻¹; in assay [4] it was 404000 M⁻¹. Besides, the Kiω was determined as 434000 M⁻¹ in assay [6] and 427000 M⁻¹ in assay [7].

The record behind these values is paper PMC3602459 (2013).
